Key:
[1] = Parallel Artificial Membrane Permeability Assay (PAMPA); format: in vitro ADME; conditions: pH 7.4
Description: The Parallel Artificial Membrane Permeability Assay (PAMPA) consists of a specially formulated lecithin-based lipid combination referred to as the gastrointestinal tract (GIT) lipid. The GIT lipid is used to form a membrane in a sandwich plate assembly similar to that used in the Caco-2 assays. The GIT lipid closely resembles in vivo membrane composition and performance as measured by standard compounds that are known to be passively absorbed in humans. […] The rate of passage of compounds through the PAMPA membrane is used to determine a permeability coefficient (Pc), which can be related to the in vivo passive permeability of the compound.
The permeability coefficient (Pc) of a particular compound is examined in a pH-dependent setting with apical and basolateral pH of 7.4. All experiments are conducted in triplicate determinations.
The PAMPA assay plate (donor side and acceptor side) was combined and allowed to incubate at room temperature for 4 hours. […] The donor, acceptor, reference, and blank plates were read in the SPECTRAMAX® UV plate reader. Data was captured by the pION software, which analyzes the spectra and generates Pc values.

human CCR-2 [2] = target: T1, human CCR-2 (Homo sapiens, UniProt P41597); experiment: CCR-2 chemotaxis, MCP-1-induced, THP-1 cells; format: cell-based
T1 sequence (P41597 1-360 isoform P41597-2): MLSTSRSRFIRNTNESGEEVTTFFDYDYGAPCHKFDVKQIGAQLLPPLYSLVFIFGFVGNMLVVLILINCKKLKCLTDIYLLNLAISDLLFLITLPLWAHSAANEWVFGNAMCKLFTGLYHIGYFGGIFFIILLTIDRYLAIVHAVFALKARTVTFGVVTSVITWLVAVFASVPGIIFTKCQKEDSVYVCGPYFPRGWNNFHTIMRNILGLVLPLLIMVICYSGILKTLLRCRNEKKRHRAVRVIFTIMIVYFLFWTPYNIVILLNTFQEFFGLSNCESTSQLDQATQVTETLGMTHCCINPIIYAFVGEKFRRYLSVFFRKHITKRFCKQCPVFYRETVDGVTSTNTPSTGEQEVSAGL
Protocol: The human CCR-2 chemotaxis assay was conducted with the human monocytic cell line, THP-1. THP-1 cells were first labeled with the fluorescent dye Calcein-AM in phenol red-free, BSA-free RPMI-1640 (pH 7.4) at 37° C. for 30 minutes with gentle mixing every 15 minutes. The labeled cells were then washed and re-suspended at 1×10^5/ml in chemotaxis buffer (phenol red-free RPMI-1640, 0.1% BSA, pH 7.4). The test compound was diluted in chemotaxis buffer such that the final assay concentration ranged from 0.01 nM to 1 μM. The ligand MCP-1 (PeproTech Inc.) was diluted to 20 nM in chemotaxis buffer. To perform the assay, an equal volume of test compound dilutions was mixed with an equal volume of labeled THP-1 cells (Mixture 1), and an equal volume of test compound dilutions was mixed with an equal volume of diluted MCP-1 ligand (Mixture 2). Both mixtures were incubated independently at 37° C. for 10 minutes followed by gentle mixing. MCP-1-induced chemotaxis was then measured in a chemotaxis plate (Becton Dickinson) by placing 50 μl of Mixture 1 in the top chamber and 225 μl of Mixture 2 in the bottom chamber. The plate was covered with a lid and incubated at 37° C. for 30 minutes. 30 minutes later, the plate was read on a CYTOFLUOR®. All conditions were tested in duplicate. […]

human CCR-2 [3] = target: T1, human CCR-2; experiment: CCR-2 calcium mobilization, THP-1 cells; format: cell-based; conditions: MCP-1 10 nM, read-out: CCR-2 Ca2+ Flux IC50
Protocol: All conditions were tested in duplicate.

CCR-2 [4] = target: T2, CCR-2 (Homo sapiens, UniProt P41597); experiment: CCR-2 GTP-γS exchange, HT1080 membranes; format: biochemical; conditions: 1 nM MCP-1
Protocol: Each reaction (200 μL) contained 20 mM Na-HEPES, 10 mM MgCl2, 50 mM NaCl, 0.1% BSA (Sigma), 1% DMSO, and 10 μM GDP (pH 7.4). […] Reactions were incubated for 90 minutes hour at room temperature and [^35S]-GTPγS/Gαi complexes were collected on a Millipore MAFC 96 well filter plate. […] Data were analyzed using the ligand binding software from Graphpad Prism 4.

CCR-5 [5] = target: T3, CCR-5 (Homo sapiens, UniProt P51681); experiment: CCR-5 GTP-γS exchange, CCR-5/HT1080 membranes; format: biochemical; conditions: MIP-1α/LD78β ligand
T3 construct: human peripheral T cells was used as a source of CCR-5; endogenous in cells; host or cells: human peripheral T cells from donors pre-screened for high CCR-5 expression
Description: A similar procedure to the CCR-2 GTP-γS exchange procedure set forth above was adopted except that MIP-1α/LD78β was the ligand and the cell line was CCR-5/HT1080. MIP-1α/LD78β was used as the CCR-5 ligand because it provided a bigger signal to noise ratio than MIP-1β.

CCR-5 [6] = target: T3, CCR-5; experiment: CCR-5 whole blood CD11b upregulation; format: cell-based; conditions: MIP-1β 50 nM
Protocol: Similar procedure to the CCR-2 whole blood CD11b upregulation procedure set forth above was adopted except that MIP-1β (50 nM) was used as the ligand.

CCR-2 [7] = target: T2, CCR-2; experiment: In vivo receptor occupancy in blood of hCCR-2 KI mice (Gaddum equation); conditions: for % Example 1 bound CCR-2 / % free CCR-2 / % mouse MCP-1 bound CCR-2: 48 h
Description: The caveat for this estimation is that only CCR-2 and its major ligand MCP-1 were taken into consideration. The receptor occupancy of a ligand in the presence of a competitive inhibitor is defined by the Gaddum equation: […]
Since Example 1 is a competitive inhibitor of MCP-1 binding to CCR-2, the amounts of both mouse MCP-1/CCR-2 receptor complex and Example 1/CCR-2 receptor complex can be determined using the serum levels of both mouse MCP-1 and protein-unbound Example 1 in plasma. […] The fraction of mouse MCP-1/CCR-2 receptor complexes is determined using the form of the equation described above. To determine the fraction of Example 1/CCR-2 complexes the equation is re-defined as:
[formula] Finally, the amount of CCR-2 free is determined from: [CCR-2]total=[CCR-2]free+[mouse MCP-1/CCR-2]+[Example 1/CCR-2]

[8] = Single-dose pharmacokinetics in rats; conditions: male, Sprague-Dawley, rat
Protocol: Male Sprague-Dawley rats (250-300 g) were used for the pharmacokinetic studies. Rats were fasted overnight prior to PO dosing and fed 4 h post dose. Blood samples (˜0.3 mL) were collected from the jugular vein into K2EDTA-containing tubes and then centrifuged at 4° C. (1500-2000×g) to obtain plasma. […] Serial blood samples were obtained at 0.17 (for IV only), 0.25, 0.5, 0.75, 1, 2, 4, 6, 8, and 24 h post dose. Plasma samples, obtained by centrifugation at 4° C. (1500-2000×g), were stored at −20° C. until analysis by LC/MS/MS.
(§1) The pharmacokinetic parameters were obtained by non-compartmental analysis of plasma concentration vs. time data (Kinetica software, Version 4.2, InnaPhase Corporation, Philadelphia, Pa.). The peak concentration (Cmax) and time for Cmax were recorded directly from experimental observations. The area under the curve from time zero to the last sampling time (AUC(0-T)) was calculated using a combination of linear and log trapezoidal summations. The total plasma clearance (CLTp), steady-state volume of distribution (Vss), apparent elimination half-life (T½) and mean residence time (MRT) were estimated after IV administration. Estimations of T½ was made using a minimum of 3 time points with quantifiable concentrations. The absolute oral bioavailability (F) was estimated as the ratio of dose-normalized AUC values following oral and IV doses.

[9] = Single-dose pharmacokinetics in monkeys; conditions: male, cynomolgus monkey, 1 mg/kg
Protocol: The pharmacokinetics of various test compounds were evaluated in male cynomolgus monkeys in a crossover-design. Monkeys were fasted overnight prior to PO dosing and fed 4 h post dose. A group of 1-3 animals (3 to 5 kg) received the compound by IV infusion (over 10 min) via a femoral vein and by oral gavage, with a 1-week washout between treatments. Serial blood samples (˜0.3 mL) were collected from a femoral artery at 0.17 (IV only), 0.25, 0.5, 0.75, 1, 2, 4, 6, 8, and 24 h post dose, and centrifuged at 4° C. (1500-2000×g) to obtain plasma. Samples were stored at −20° C. until analysis by LC/MS/MS.
as §1

[10] = 200 mg/kg (different study), oral BID

T2 sequence (P41597 whole entry): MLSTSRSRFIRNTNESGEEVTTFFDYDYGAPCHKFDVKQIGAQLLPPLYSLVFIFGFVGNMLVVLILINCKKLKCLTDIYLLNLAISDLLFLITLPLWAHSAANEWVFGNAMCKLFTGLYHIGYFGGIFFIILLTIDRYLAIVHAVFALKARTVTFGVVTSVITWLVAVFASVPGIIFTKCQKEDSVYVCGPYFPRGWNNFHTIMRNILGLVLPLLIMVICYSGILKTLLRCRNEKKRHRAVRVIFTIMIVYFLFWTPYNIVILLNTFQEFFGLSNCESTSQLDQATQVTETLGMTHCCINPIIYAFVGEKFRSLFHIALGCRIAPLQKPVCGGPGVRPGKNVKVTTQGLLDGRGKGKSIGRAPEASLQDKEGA
T3 sequence (P51681 whole entry): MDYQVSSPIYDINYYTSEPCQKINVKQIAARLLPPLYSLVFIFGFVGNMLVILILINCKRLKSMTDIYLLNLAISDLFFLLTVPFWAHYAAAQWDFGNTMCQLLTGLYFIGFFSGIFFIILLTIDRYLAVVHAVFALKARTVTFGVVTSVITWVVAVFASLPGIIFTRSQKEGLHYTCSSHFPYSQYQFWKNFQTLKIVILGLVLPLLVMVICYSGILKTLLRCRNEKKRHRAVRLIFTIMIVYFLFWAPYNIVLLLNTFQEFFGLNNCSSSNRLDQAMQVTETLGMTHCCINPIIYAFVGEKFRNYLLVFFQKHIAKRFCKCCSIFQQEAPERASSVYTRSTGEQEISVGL

CC(=O)N[C@@H]1C[C@H](NC(C)(C)C)CC[C@@H]1N1CC[C@H](Nc2ncnc3cc(C(C)(C)C)nn23)C1=O [Example 1, N-((1R,2 S,5R)-5-(tert-Butylamino)-2-((S)-3-(7-tert-butylpyrazolo[1,5-a][1,3,5]triazin-4-ylamino)-2-oxopyrrolidin-1-yl)cyclohexyl)acetamide]
Papp at 4 h, 100 µM [1]: 33.6 ×10⁻⁶ cm/s | IC50 (human CCR-2 [2]): 0.8 ± 0.8 nM | IC50 (human CCR-2 [3]): 2.9 ± 1.5 nM | IC50 (CCR-2 [4]): 3.5 ± 1.9 nM | IC50 (CCR-5 [5]): 6.1 ± 1.2 nM | IC50 (CCR-5 [6]): 5.7 nM | % Example 1 bound CCR-2 (CCR-2 [7]; 10 mg/kg oral BID): 48.15% | % free CCR-2 (CCR-2 [7]; 10 mg/kg oral BID): 50.68% | % mouse MCP-1 bound CCR-2 (CCR-2 [7]; 10 mg/kg oral BID): 1.17% | % Example 1 bound CCR-2 (CCR-2 [7]; 50 mg/kg oral BID): 88.74% | % free CCR-2 (CCR-2 [7]; 50 mg/kg oral BID): 10.69% | % mouse MCP-1 bound CCR-2 (CCR-2 [7]; 50 mg/kg oral BID): 0.56% | % Example 1 bound CCR-2 (CCR-2 [7]; 160 mg/kg oral BID): 96.72% | % free CCR-2 (CCR-2 [7]; 160 mg/kg oral BID): 3.12% | % mouse MCP-1 bound CCR-2 (CCR-2 [7]; 160 mg/kg oral BID): 0.16% | % Example 1 bound CCR-2 (CCR-2 [7]; [10]): 98.45% | % free CCR-2 (CCR-2 [7]; [10]): 1.44% | % mouse MCP-1 bound CCR-2 (CCR-2 [7]; [10]): 0.11% | CCR-2 occupancy at maximal inhibition of monocyte/macrophage infiltration (CCR-2 [7]; hCCR-2 KI mouse TG peritonitis): 98.5% | clearance ([8]; in vivo, 2 mg/kg): 49.7 mL/min/kg | bioavailability ([8]; in vivo, 10 mg/kg): 94% | AUC ([8]; plasma, oral, 10 mg/kg): 6.5 µM·h | bioavailability ([9]; in vivo): 63% | clearance ([9]; plasma, intravenous): 16.4 mL/min/kg | AUC ([9]; plasma, oral): 1.3 µM·h

— patent US8618101B2, “N-((1R,2S,5R)-5-(tert-butylamino)-2-((S)-3-(7-tert-butylpyrazolo[1,5-a][1,3,5]triazin-4-ylamino)-2-oxopyrrolidin-1-yl)cyclohexyl)acetamide, a dual modulator of chemokine receptor activity, crystalline forms and processes” (Bristol-Myers Squibb Company, priority 2009, dated 2013)
